Here are results for 89 compounds from a melting point compilation (Tetko et al.; mined from patent text by program, amines drawn as free bases though some values may be those of a salt).

In turn, `COC(=O)[C@@H]1NC(=O)[C@@H]1NC(=O)COc1ccccc1` (relative stereo) displayed a melting point of 140 to 141 °C. `CC(/C=C/n1ncc(-c2ccc(S(N)(=O)=O)cc2)c(-c2ccc(F)cc2)c1=O)C(F)(F)F` (centres undefined) came in with a melting point of 155 to 157 °C.

In turn, `CC(C)(C)OC(=O)C12CC3CC(C1)CC(C(=O)OC(C)(C)C)(C3)C2` yielded a melting point of 65 to 66 °C. `O=C([C@@H](Cc1ccc(Cl)cc1)NC1CCC(O)(c2ccc(F)cc2)CC1)N1CCC(Cn2cncn2)(C2CCCCC2)CC1` (some centres undefined) registered a melting point of 150 °C.

Consider `O=C1NC(SCC#CCc2ccccc2)C1NC(c1ccccc1)(c1ccccc1)c1ccccc1` (centres undefined), for which the melting point fell in the range of 145 to 146 °C. The figure for `CS(=O)(=O)c1ccc(-c2cnn(-c3cccc(Cl)c3)c(=O)c2COc2ccc(F)cc2)cc1` is 50 to 80 °C; for `Cn1c([N+](=O)[O-])cnc1C=Cc1cccc(C(N)=O)c1` it is 254 to 256 °C; for `O=Cc1cccc2sc(-c3ccccc3)nc12` it is 127 to 128 °C.

Consider `O=CNN(Cc1ccccc1[N+](=O)[O-])c1ccccc1`, for which the melting point lay in the range of 140 to 142 °C. The figure for `COc1cc2c(cc1-c1c(C)nn(C)c1C)-c1c(-c3cccs3)c3c(n1CC2)C(=O)N(C(C)C)CCN(C(=O)OC(C)(C)C)C3` is 232 to 234 °C; for `Cc1ccc(C(=O)Nc2ccccc2O)cc1F` it is 181 to 183 °C. The figure for `COC(=O)c1cc(CBr)cnc1C1=NC(C)(C(C)C)C(=O)N1C(=O)c1ccccc1` (centres undefined) is 88 to 119 °C; for `Cc1cc2cc(C#N)c(Cl)nc2s1` it is 171 to 173 °C; for `CCOC(=O)COc1cc(O)ccc1C(=O)c1ccc(OCc2nc(-c3ccccc3)oc2C)cc1` it is 184 to 186 °C. The value for `CN(C)C(=O)C#C[C@H]1CC[C@H](N(C)C(=O)OC(C)(C)C)CC1` was 115 to 117 °C; that for `CCCCc1ncc(/C=C2\C(=O)NC(=O)N2Cc2cccs2)n1Cc1ccc(C(=O)OC)cc1` was 164 to 165 °C; that for `Cc1cccc(-c2[nH]c(C(C)C)nc2-c2cccc(-c3ccc(NS(C)(=O)=O)cc3)c2)n1` was 128 to 130 °C. With `NC(=O)CN1CCN(c2cccccc2=O)CC1`, the melting point lay within 169 to 171 °C. `CCOC(=O)c1c(CCc2ccccc2)nc2c(cnn2CC)c1O` showed a melting point of 153 to 155 °C. Consider `CC(C)c1cccc(C(C)C)c1NC(=O)CNC(c1ccccc1)c1ccccc1Cl` (centres undefined), for which the melting point was in the range of 119 to 121 °C. The value for `O=S(=O)(CCl)c1cccc2ccccc12` was 103 to 105 °C; that for `C1=C(c2ccccc2)CC(CN2CCN(c3ccccn3)CC2)CC1` (centres undefined) was 96 to 98 °C. The figure for `O=C(NNc1ccccc1C(F)(F)F)c1c(F)cccc1F` is 129 to 130 °C; for `C#CCN(C(=O)CO)c1c(C)nc(N(C)C)nc1C` it is 128 to 130 °C. For `Oc1ccc(C2(c3ccc(O)c(Cl)c3)CCCCCCCCCCC2)cc1Cl`, the melting point fell in the range of 167 to 169 °C.

In turn, `Cc1ccc(C)c(C(=O)Nc2ccc(C(=O)N3Cc4ccccc4Cc4ccccc43)cc2)c1` returned a melting point of 213 to 216 °C. The figure for `O=C(O)COc1ccc(C(=O)c2cccc(Cl)c2)c(Cl)c1Cl` is 155 to 156 °C; for `O=C(c1ccc(F)cc1)C1CCN(CCCCn2c(=O)[nH]c3ccccc32)CC1` it is 176 °C. The value for `Cn1nc(C(F)(F)F)cc1O` was 170 to 173 °C; that for `COc1ccccc1Cc1ccc(=O)[nH]n1` was 142 to 143 °C; that for `COc1c(Cl)ccc(-c2cc(N)c(Cl)c(C(=O)NOCc3ccc(F)cc3)n2)c1F` was 150 to 153 °C. The value for `Brc1ccc(CN2CCOCC2)cc1` was 68 to 71 °C. Turning to `O=C(CCCl)Nc1ccc2[nH]ncc2c1`, the melting point lay in the range of 158 to 160 °C. The figure for `O=C1NC(=O)C2(N1)C(=O)N(Cc1ccc(Cl)c(Cl)c1)c1c(F)cccc12` (single isomer, unassigned; (+)) is 246 °C; for `Cc1c(O)c(=O)ccn1CC(C)C` it is 170 to 171 °C; for `O=C(O)CCNC(=O)C1CN(c2ccc(-c3noc(=O)[nH]3)cc2)C(=O)O1` (centres undefined) it is 221 to 223 °C. `CC1=NN(c2cc(Cl)c(C(=O)c3ccc(Cl)cc3)c(Cl)c2)C(=O)NC1` came in with a melting point of 257 to 259 °C. The value for `COC(=O)c1nc(-c2ccc(Cl)c(OC)c2F)c(F)c(NC(C)=O)c1Cl` was 175 to 177 °C; that for `COc1cccc(Cc2cnc(NCCSCc3nccs3)[nH]c2=O)c1` was 104 to 106 °C. The value for `CC(C)c1cn2ccccc2c1S(=O)(=O)c1ccc(OCCCN(C)C)cc1` was 90 to 92 °C; that for `COC(=O)c1cccc(F)c1OC` was 99 to 101 °C; that for `CCNc1nc(-c2ccc(NC(=O)NCc3cccnc3)cc2)ccc1C(=O)O` was 216 to 218 °C. The value for `O=c1c(N2CCCCC2)nc2ccccc2n1-c1ccc(Cl)cc1` was 184 to 185 °C. Compound `CC(=O)c1ccc(S(=O)(=O)Nc2cc(C)on2)cc1` displayed a melting point of 189 to 190 °C. As for `CCCC1NCCc2ccc(NC(=N)c3cccs3)cc21` (centres undefined), the melting point was 127 to 128 °C. Take `CC(=CC(=O)NCc1cccc(CNC(=O)C=C(C)C(=O)O)c1)C(=O)O`: the melting point is 148 to 150 °C. Consider `O=C(Nc1ccc(F)cc1)c1ccc(OC(F)(F)F)c(Nc2cccc(C(F)(F)F)c2)c1`, for which the melting point was 143 to 144 °C. `Cc1cc(C)cc(S(=O)(=O)n2c(CCC(=O)O)cc3cc(Cl)ccc32)c1` yielded a melting point of 189 to 193 °C.

Turning to `O=C(NCCCN1CCN(Cc2ccccc2)CC1)Nc1ccccc1`, the melting point was 45 to 47 °C. On to `CCOc1nc(F)cc2nc(SSc3nc4cc(F)nc(OCC)n4n3)nn12`, for which the melting point was in the range of 215 to 216 °C.

On to `CC(C)(C)OC(=O)N[C@@H](CO)C(=O)N[C@@H](CCC(=O)OCc1ccccc1)C(=O)OCc1ccccc1`, for which the melting point was 93 to 95 °C.

The compound `CC(C)OC(=O)c1ccccc1SNc1ccc(OC(F)(F)F)cc1` gave a melting point of 120 to 121 °C. The figure for `CC1(c2ccc(S(=O)(=O)Cl)cc2)Cc2cc(OCC(=O)O)c(Cl)c(Cl)c2C1=O` (centres undefined) is 209 to 210 °C. The figure for `CCC(=O)c1c(C)[nH]c(-c2ccccc2)c1N` is 166 to 168 °C; for `CC1(C)C=CC(=Cc2ccc(F)cc2)C1(O)Cn1ccnc1` (centres undefined) it is 172 °C.

For `Cn1nnc2c1C(=O)C(Cl)=C(Cl)C2=O`, the melting point was in the range of 254 to 255 °C.

In turn, `O=C(N[C@H]1CCCNC1=O)c1ccccc1F` gave a melting point of 166 to 168 °C. As for `CC(=NO)c1nn(C)c2cc(Oc3ccc(Cl)cc3)ccc12`, the melting point fell in the range of 148 to 150 °C. Take `COc1ccc(C(C)NC2=Nc3ccc(Cl)cc3C(=O)N(C)C2)cc1OC` (centres undefined): the melting point is 175 to 178 °C. Consider `CCNC(=O)c1cc2c(Cl)ccc(-n3c(=O)cc(C(F)(F)F)n(C)c3=O)c2o1`, for which the melting point is 225 to 226 °C. With `CC1(C)COP(=O)(O)OC1c1ccc2ccccc2c1` (centres undefined), the melting point lay within 237 to 238 °C. The value for `COc1cc(NCCCO)c([N+](=O)[O-])cc1O` was 144 °C; that for `NC(=O)c1cccc(-c2nc3sccn3c2-c2ccnc(N[C@@H]3CCCNC3)n2)c1` was 202 to 205 °C; that for `O=C1c2ccccc2-c2c1c(Cl)nc1ccc(Br)cc21` was 304 to 306 °C.

`Cc1ccc(S(=O)(=O)Cc2ccccc2)cc1` displayed a melting point of 49 to 51 °C. The value for `c1cc(Oc2ccc3c(c2)CCCN3)ccn1` was 117 to 122 °C; that for `N#Cc1ccc(S(=O)(=O)N2CCCC2c2ccc(F)cc2)cc1` (racemic) was 147 °C. Compound `O=C1c2ccccc2CNc2nc3ccc(Br)cc3c(Cl)c21` had a melting point of 260 to 264 °C. Take `CCCC[C@@H](C)C[C@@H](CC(=O)OC(C)(C)C)C(=O)O`: the melting point lay in the range of 142 to 143 °C.

Turning to `Cc1cc(O)c(C)c(C)c1OCc1ccccc1`, the melting point is 101 to 103 °C.

In turn, `COC(=O)c1ccc2cc(C(=O)c3ccc4c(c3)C3(C)C5(C)CCC(C5)C3(C)O4)ccc2c1` (centres undefined) displayed a melting point of 146 °C. The figure for `ClC(Cl)=CCOc1cc(Cl)c(OCCCOc2ccc(-c3nn[nH]n3)cc2)c(Cl)c1` is 159 to 161 °C; for `CCNC(=O)C1CN(C(c2ccccc2)c2ccccc2)C1` it is 91 to 93 °C. The value for `CC(C)(C)OC(=O)NCCS(C)(=O)=O` was 85 to 86 °C; that for `O=C(NCc1ccsc1)N(O)CCO` was 114 to 115 °C. The value for `CCOC(=O)Cc1c(C(=O)OCC)c(Br)c(C(=O)c2ccc(Cl)cc2)n1C` was 88 to 90 °C; that for `C[C@H](Nc1nc(C#N)nc(Cl)c1-c1c(F)cc(F)cc1F)C(F)(F)F` was 134 to 136 °C; that for `Cc1nccc(N2CCC(CN3CCN(C(=O)c4ccc(F)cc4)CC3)CC2)n1` was 127 to 128 °C.

With `CCCNC(=O)c1ccccc1N=C(NC(=O)c1ccccc1)SC`, the melting point lay in the range of 86 to 89 °C. The compound `CC1(C)Cc2sc3c(c2C1)CCNC3=O` displayed a melting point of 205 to 207 °C. As to `CCCCCCCCCc1ccc(C(CCCC=O)C(=O)OC)cc1` (centres undefined), the melting point lay within 38 to 39 °C. The value for `CCOC(=O)c1cn(Cc2ccc(-c3ccccc3-c3nnn[nH]3)cc2)c2sc(CC)c(NC(C)=O)c2c1=O` was 163 to 166 °C; that for `O=Cc1ccc2c(c1)C13CC2c2ccccc2C1CN(CC1CCCC1)C3` (centres undefined) was 170 to 175 °C; that for `CCCCSc1cc(C(=O)O)cc(N)c1-c1ccccc1` was 143 to 144 °C. The figure for `COc1cc(OC)nc(Cc2nscc2C(=O)N(C)c2ccccc2)n1` is 92 to 93 °C. Turning to `CSC1=NC(=O)C(=C(C)c2cc(C(C)(C)C)c(O)c(C(C)(C)C)c2)S1`, the melting point was in the range of 206 to 209 °C.

On to `CNC1([C@@H]2CCN(c3cc(N)c4c(=O)c(C(=O)O)cn([C@@H]5C[C@@H]5F)c4c3C)C2)CC1`, for which the melting point was 129 to 131 °C. The value for `CCn1c(Nc2cc(C(F)(F)F)ccc2C(F)(F)F)nc(C(F)(F)F)c(Cl)c1=O` was 144 to 146 °C; that for `c1cc2c3c(cccc3c1)C(NOCCCn1ccnc1)=N2` was 102 to 104 °C.

As a reminder, the melting point is the temperature, or range, at which the solid turns liquid.
